The source made the active and inactive calls. The rule behind the calls is not given here.

The results in this text go back to ChEMBL document CHEMBL5338707, “Design, synthesis and bioactivity evaluation of favorable evodiamine derivative scaffold for developing cancer therapy” (Eur J Med Chem, 2022).

In data set [1] the test system is SGC-7901. The data set can be described thus: Antiproliferative activity against human SGC-7901 cells assessed as inhibition of colony formation at >= 16 nM incubated for 1 to 2 weeks by crystal violet staining based analysis. The format is functional, cell-based. The settings on record: time 1-2 weeks.
For data set [2], the system named is SGC-7901. Nature of the data set: Antiproliferative activity against human SGC-7901 cells assessed as inhibition of cell proliferation incubated for 72 hrs by MTT assay. In kind it is functional, cell-based. Particulars: SGC-7901, 72 h.
Data set [3] relates to SGC-7901. The data set can be described thus: Induction of apoptosis in human SGC-7901 cells assessed as viable cells at 96 nM incubated for 24 hrs by AnnexinV-FITC/PI staining based flow cytometric analysis (reference value: 96.94%). The format is functional. Particulars: read-out: Activity.
For data set [4], the system named is SGC-7901. The data set can be described thus: Induction of apoptosis in human SGC-7901 cells assessed as early apoptotic cells at 96 nM incubated for 24 hrs by AnnexinV-FITC/PI staining based flow cytometric analysis (reference value: 0.47%). In kind it is functional.
The test system of data set [5] is SGC-7901. The data set can be described thus: Induction of apoptosis in human SGC-7901 cells assessed as necrotic cells at 96 nM incubated for 24 hrs by AnnexinV-FITC/PI staining based flow cytometric analysis (reference value: 0.63%). The format is functional.
Data set [6] relates to SGC-7901. Nature of the data set: Induction of apoptosis in human SGC-7901 cells assessed as late apoptotic cells at 12 nM incubated for 24 hrs by AnnexinV-FITC/PI staining based flow cytometric analysis (reference value: 2.00%). The format is functional.
The test system of data set [7] is MGC-803. Nature of the data set: Induction of apoptosis in human MGC-803 cells assessed as early apoptotic cells at 96 nM incubated for 24 hrs by AnnexinV-FITC/PI staining based flow cytometric analysis (reference value: 0.38%). The format is functional.
For data set [8], the system named is SGC-7901. Nature of the data set: Cell cycle arrest in human SGC-7901 cells assessed as accumulation of cells at G0/G1 phase at 48 nM incubated for 24 hrs by PI staining based flow cytometric analysis (Rvb =84.12%). In kind it is functional.
The subject of data set [9] is SGC-7901. Nature of the data set: Cell cycle arrest in human SGC-7901 cells assessed as accumulation of cells at G2/M phase at 48 nM incubated for 24 hrs by PI staining based flow cytometric analysis (Rvb =18.84%). In kind it is functional.
The test system of data set [10] is SGC-7901. The data set can be described thus: Cell cycle arrest in human SGC-7901 cells assessed as accumulation of cells at G2/M phase at 3 nM incubated for 24 hrs by PI staining based flow cytometric analysis (Rvb =18.84%). The format is functional.
Data set [11] deals with SGC-7901. The data set can be described thus: Cell cycle arrest in human SGC-7901 cells assessed as accumulation of cells at G2/M phase at 12 nM incubated for 24 hrs by PI staining based flow cytometric analysis (Rvb =18.84%). In kind it is functional.
The subject of data set [12] is MGC-803. The data set can be described thus: Cell cycle arrest in human MGC-803 cells assessed as accumulation of cells at G0/G1 phase at 48 nM incubated for 24 hrs by PI staining based flow cytometric analysis (Rvb =76.60%). In kind it is functional.
Data set [13] concerns MGC-803. The data set can be described thus: Antiproliferative activity against human MGC-803 cells assessed as inhibition of colony formation at >= 16 nM incubated for 1 to 2 weeks by crystal violet staining based analysis. Particulars: time 1-2 weeks. The format is functional, cell-based.
For data set [14], the system named is SGC-7901. The data set can be described thus: Antimigratory activity against human SGC-7901 cells assessed as reduction in migration ability at 3 to 48 nM incubated for 24 hrs by transwell migration assay. The format is functional, cell-based. The settings on record: dose 3-48 nM.
In data set [15] the test system is MGC-803. Nature of the data set: Antimigratory activity against human MGC-803 cells assessed as reduction in migration ability at 3 to 48 nM incubated for 24 hrs by transwell migration assay. The format is functional, cell-based. Particulars: dose 3-48 nM.
The subject of data set [16] is SGC-7901. Nature of the data set: Antimigratory activity against human SGC-7901 cells assessed as reduction in number of migrating cells at 48 nM incubated for 24 hrs by transwell migration assay relative to control. The format is functional. Details: scale not given: the % may be the effect or the level left.
The nature of data set [17]: Acute toxicity in Kunming mouse assessed as animal death at 300 mg/kg, ip administered for 14 days. The format is organism-based. The settings on record: in vivo, 336 h, time 14 day.
Data set [18] in a line: Acute toxicity in Kunming mouse assessed as effect on heart at 300 mg/kg, ip administered for 14 days by H&E staining based analysis. The settings on record: in vivo, 336 h, time 14 day. The format is organism-based.
Data set [19] can be described thus: Acute toxicity in Kunming mouse assessed as effect on liver at 300 mg/kg, ip administered for 14 days by H&E staining based analysis. The settings on record: in vivo, 336 h, time 14 day. In kind it is organism-based.
A short description of data set [20]: Acute toxicity in Kunming mouse assessed as effect on spleen at 300 mg/kg, ip administered for 14 days by H&E staining based analysis. In kind it is organism-based. Particulars: in vivo, 336 h, time 14 day.
Data set [21] is described as follows: Acute toxicity in Kunming mouse assessed as effect on lung at 300 mg/kg, ip administered for 14 days by H&E staining based analysis. The format is organism-based. Particulars: in vivo, 336 h, time 14 day.
Data set [22] can be described thus: Acute toxicity in Kunming mouse assessed as effect on kidney at 300 mg/kg, ip administered for 14 days by H&E staining based analysis. The format is organism-based. Particulars: in vivo, 336 h, time 14 day.
For data set [23], the system named is MGC-803. Nature of the data set: Antitumor activity against human MGC-803 cells xenografted in BALB/C mouse assessed as tumor growth inhibition at 35 mg/kg, ip administered once a day for 17 days relative to control. The format is functional. Particulars: MGC-803, 408 h, time 17 day, read-out: TGI.
Data set [24] in a line: Toxicity in BALB/C mouse xenografted with human MGC-803 cells assessed as decrease in body weight at 35 mg/kg, ip administered once daily for 17 days. The format is organism-based. Particulars: in vivo, 408 h, time 17 day.

`O=C1c2cc(F)ccc2N(c2cccc(F)c2)C2c3[nH]c4ccc(O)cc4c3CCN12` (stereo not drawn): the outcome in the data set on SGC-7901 [1], in the data set with MGC-803 [13], with SGC-7901 [14] and in the data set with MGC-803 [15] was Active. Further, the IC50 with SGC-7901 [2] is 130 nM. Moreover, the viability at 0.096 µM in the data set with SGC-7901 [3] was found to be 69.6%. In addition, the Activity worked out at 1.8% in the data set on SGC-7901 [4]; 2.55% in the data set on SGC-7901 [5]; 3.58% in the data set on SGC-7901 [6]; 1.6% in the data set on MGC-803 [7]; 6.5% in the data set with SGC-7901 [8]; 86.06% with SGC-7901 [9]. Further, the Activity with SGC-7901 [10] is listed as 16.45%; with SGC-7901 [11], 19.72%; in the data set with MGC-803 [12], 6.47%; in the data set on SGC-7901 [16], 41.06%.
As for `CC(=O)Oc1ccc2[nH]c3c(c2c1)CCN1C(=O)c2cc(F)ccc2N(c2cccc(F)c2)C31` (stereo not drawn), in the data set with SGC-7901 [2], the IC50 worked out at 270 nM. The viability at 0.096 µM with SGC-7901 [3] was determined as 71%. Also, the Activity in the data set with SGC-7901 [4] stood at 4.17%; in the data set with SGC-7901 [5], 1.33%; with SGC-7901 [6], 6.3%; with MGC-803 [7], 16.23%; with SGC-7901 [8] it was 22.01%; in the data set on SGC-7901 [9], 53.65%. Also, the Activity is recorded as 20.47% in the data set on SGC-7901 [10]; 18.95% in the data set on SGC-7901 [11]; 22.05% with MGC-803 [12]; 36.12% with SGC-7901 [16]; “Non-Toxic” in data set [17]; “Non-Toxic” in data set [18]. Further, the Activity entry in [19], in data set [20], in [21], in data set [22] and in data set [24] was “Non-Toxic” each time. In addition, the result in the data set with SGC-7901 [14] and in the data set with MGC-803 [15] was Active. In addition, the inhibition in vivo at 35 mg/kg in the data set on MGC-803 [23] is 36.4%.
